What was measured:
[1] = biological target: T1, His6-CACNB1:TGG548TAA (Homo sapiens, UniProt Q02641); test: Protein fluorescent quenching; assay type: binding; settings: compound 1 μM, protein 0-8 μM
T1 construct: His6 (N); made in house
From the text: The His6-CACNB1: […] were generated from pDEST17-CACNB1 using QuikChange site-directed mutagenesis kit (Stratagene, LaJolla, Calif.). The His6 tagged protein was purified on a Ni-NTA column (Qiagen, Valencia, Calif.). […] J. Biol. Chem. 281, 14961-14970 (2006).

[2] = tested on: His6-tagged FKBP52; test: [3H]-FK506 binding on Ni-chelated FLASH plate; parameters: species or system human; settings: for binding selectivity for FKBP52 versus FKBP12, higher than that of rapamycin: relative to rapamycin
Procedure: Reactions were carried out in triplicate at 25° C. for 30 min. Kd were calculated using methods described by Carreras (Anal. Biochem. 298, 57-61 (2001)).

T1 sequence (Q02641 1-547 limits assumed): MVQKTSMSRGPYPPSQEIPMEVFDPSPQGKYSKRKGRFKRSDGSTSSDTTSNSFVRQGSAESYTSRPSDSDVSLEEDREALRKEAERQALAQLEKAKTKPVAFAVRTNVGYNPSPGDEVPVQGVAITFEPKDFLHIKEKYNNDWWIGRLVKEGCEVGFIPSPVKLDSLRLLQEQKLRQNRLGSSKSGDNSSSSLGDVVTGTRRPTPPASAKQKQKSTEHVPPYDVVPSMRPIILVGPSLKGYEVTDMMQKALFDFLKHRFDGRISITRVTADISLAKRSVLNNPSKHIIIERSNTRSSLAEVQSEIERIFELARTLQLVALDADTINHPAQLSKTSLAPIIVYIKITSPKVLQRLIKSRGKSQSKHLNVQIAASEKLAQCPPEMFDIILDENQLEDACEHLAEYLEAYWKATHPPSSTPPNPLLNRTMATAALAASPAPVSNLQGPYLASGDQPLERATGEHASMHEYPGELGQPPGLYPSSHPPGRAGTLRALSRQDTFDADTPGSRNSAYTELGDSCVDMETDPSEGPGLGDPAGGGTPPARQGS

SMILES | protein fluorescent quenching [1] | Kd(FKBP12)/Kd(FKBP52) [2] | binding selectivity for FKBP52 versus FKBP12, higher than that of rapamycin [2] | binding selectivity for FKBP52 versus FKBP12, higher than that of rapamycin ([2]; listed as rapamycin analogue II)
CO[C@H]1C[C@@H]2CC[C@@H](C)[C@@](O)(O2)C(=O)C(=O)N2CCCCC2C(=O)O[C@H]([C@H](C)C[C@@H]2CC[C@@H](O)[C@H](OC)C2)CC(=O)[C@H](C)/C=C(\C)[C@@H](O)[C@@H](OC)C(=O)[C@H](C)C[C@H](C)C2C=C[C@H](/C=C/1C)ON2c1ccccc1 (stereo partly shown) [Rapamycin analogue I, 9,27-dihydroxy-3-{2-[4-hydroxy-3-methoxycyclohexyl]-1-methylethyl}-10,21-dimethoxy-6,8,12,14,20,26-hexamethyl-37-phenyl-4,9,10,12,13,14,15,18,21,22,23,24,25,26,27,32,33,34,34a-nonadecahydro-3H-23,27-epoxy-18,15-(epoxyimino)pyrido[2,1-c][1,4]oxazacyclohentriacontine-1,5,11,28,29(6H, 31H)-pentone] | linear dose response curve | – | – | –
CO[C@H]1C[C@@H]2CC[C@@H](C)[C@@](O)(O2)C(=O)C(=O)N2CCCCC2C(=O)O[C@H]([C@H](C)C[C@@H]2CC[C@@H](O)[C@H](OC)C2)CC(=O)[C@H](C)/C=C(\C)[C@@H](O)[C@@H](OC)C(=O)[C@H](C)C[C@H](C)C2CC[C@H](/C=C/1C)ON2c1ccccc1 (stereo partly shown) [Rapamycin analogue II, 9,27-dihydroxy-3-{2-[4-hydroxy-3-methoxycyclohexyl]-1-methylethyl}-10,21-dimethoxy-6,8,12,14,20,26-hexamethyl-37-phenyl-4,9,10,12,13,14,15,16,17,18,21,22,23,24,25,26,27,32,33,34,34a-henicosahydro-3H-23,27-epoxy-18,15-(epoxyimino)pyrido[2,1-c][1,4]oxazacyclohentriacontine-1,5,11,28,29(6H, 31H)-pentone] | – | 229 | 687 fold | at least 600 fold
